The source made the active and inactive calls. The calls are words filed in the database; no cut-off is given here.
Tests used:
[1] = molecular target: T1, Proteinase-activated receptor 1 (Homo sapiens, UniProt P25116); experiment: Inhibitory activity against binding to Thrombin receptor 1 (PAR-1)
T1 sequence (P25116 whole entry): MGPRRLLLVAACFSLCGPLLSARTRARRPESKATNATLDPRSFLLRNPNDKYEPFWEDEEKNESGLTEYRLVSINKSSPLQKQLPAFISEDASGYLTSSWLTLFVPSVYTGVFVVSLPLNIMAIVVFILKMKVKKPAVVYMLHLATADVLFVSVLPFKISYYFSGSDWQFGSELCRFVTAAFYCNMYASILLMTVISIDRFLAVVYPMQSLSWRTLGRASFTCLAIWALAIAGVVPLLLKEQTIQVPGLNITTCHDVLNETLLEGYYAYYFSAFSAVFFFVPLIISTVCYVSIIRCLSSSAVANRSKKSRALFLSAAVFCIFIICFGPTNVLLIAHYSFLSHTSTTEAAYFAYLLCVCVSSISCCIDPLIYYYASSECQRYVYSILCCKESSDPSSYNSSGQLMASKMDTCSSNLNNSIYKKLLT

Homo sapiens [2] = species on record: Homo sapiens; experiment: Compound was evaluated for the inhibition of aggregation induced by 0.1 U/mL thrombin at 10 uM concentration and determined at 2 min; NA = Not active; type: functional, organism-based
Homo sapiens [3] = species on record: Homo sapiens; experiment: Compound was evaluated for the inhibition of aggregation induced by 300 nM ha-TRAP(high affinity thrombin receptor agonist peptide); type: functional, organism-based
[4] = molecular target: T2, Proteinase-activated receptor 1 (Homo sapiens) (UniProt P25116); experiment: Compound was evaluated for inhibitory activity against binding to Thrombin receptor 1 (PAR-1) at 1 uM concentration
T2 sequence (whole entry): T1 sequence (P25116 whole entry)

Homo sapiens [5] = species on record: Homo sapiens; experiment: Compound was evaluated for the inhibition of aggregation induced by 0.1 U/mL thrombin and determined at 2 min.; type: functional, organism-based
Homo sapiens [6] = species on record: Homo sapiens; experiment: Compound was evaluated for the inhibition of platelet aggregation induced by 0.1 U/mL thrombin at concentration. of 10 uM; NA = Not active; type: functional, organism-based
Homo sapiens [7] = species on record: Homo sapiens; experiment: Compound was evaluated for the inhibition of aggregation induced by 300 nM ha-TRAP(high affinity thrombin receptor agonist peptide) at 10 uM concentration; NA = Not active; type: functional, organism-based
Homo sapiens [8] = species on record: Homo sapiens; experiment: Compound was evaluated for the inhibition of aggregation induced by 300 nM ha-TRAP(high affinity thrombin receptor agonist peptide) at 10 uM concentration; type: functional

Row | IC50 [1] [nM] | IC50 (Homo sapiens [3]) [nM] | SMILES | inhibition (Homo sapiens [2]) | also measured
1 | 4500 | – | CCc1ccc(Cn2ccc3c4c(N)nc(N)nc4ccc32)cc1 | – | –
2 | 3200 | – | CNc1nc(N(C)C)nc2ccc3c(ccn3Cc3ccc(C(C)C)cc3)c12 | inactive | –
3 | 100 | 2000 | CC(C)c1ccc(Cn2ccc3c4c(N)nc(N(C)C)nc4ccc32)cc1 | inactive | –
4 | 870 | 600 | CNc1nc(N)c2c(ccc3c2ccn3Cc2ccc(C(C)C)cc2)n1 | inactive | –
5 | – | – | CC(C)c1ccc(Cn2ccc3c4c(N)nc(N5CCc6ccccc6C5)nc4ccc32)cc1 | inactive | inhibition [4]: inactive
6 | 1750 | – | Cc1ccc2cc(Cn3ccc4c5c(N)nc(N)nc5ccc43)ccc2c1 | – | –
7 | 52 | 150 | CC(C)c1ccc(Cn2ccc3c4c(N)nc(N(C)C5CC5)nc4ccc32)cc1 | – | IC50 (Homo sapiens [5]): 700 nM
8 | 2630 | – | CCOc1ccc(Cn2ccc3c4c(N)nc(N)nc4ccc32)cc1 | – | –
9 | 524 | 600 | CCNc1nc(N)c2c(ccc3c2ccn3Cc2ccc(C(C)C)cc2)n1 | inactive | –
10 | 300 | 3000 | CC(C)c1ccc(Cn2ccc3c4c(N)nc(N)nc4ccc32)cc1 | – | inhibition (Homo sapiens [6]): inactive
11 | – | – | CC(C)c1ccc(Cn2ccc3c4c(N)nc(N5CCNCC5)nc4ccc32)cc1 | inactive | inhibition [4]: 17%; inhibition (Homo sapiens [7]): inactive
12 | 6880 | – | CSc1ccc(Cn2ccc3c4c(N)nc(N)nc4ccc32)cc1 | – | –
13 | 1250 | – | CC(C)c1ccc(Cn2ccc3c4c(N(C)C)nc(N(C)C)nc4ccc32)cc1 | inactive | Inhibition (Homo sapiens [8]): 40%
14 | 9600 | – | C=Cc1ccc(Cn2ccc3c4c(N)nc(N)nc4ccc32)cc1 | – | –
15 | 56 | 300 | CC(C)c1ccc(Cn2ccc3c4c(N)nc(NC5CC5)nc4ccc32)cc1 | – | IC50 (Homo sapiens [5]): 3000 nM
16 | 100 | 600 | CC(C)c1ccc(Cn2ccc3c4c(N)nc(N5CCCCC5)nc4ccc32)cc1 | inactive | –
17 | 1230 | – | CC(C)(C)c1ccc(Cn2ccc3c4c(N)nc(N)nc4ccc32)cc1 | – | –
18 | 4900 | – | CC(C)c1ccc(Cn2ccc3c4c(N)nc(NCCO)nc4ccc32)cc1 | inactive | inhibition (Homo sapiens [7]): inactive

From ChEMBL document CHEMBL1131806, “Structure-activity relationships of pyrroloquinazolines as thrombin receptor antagonists” (Bioorg Med Chem Lett, 1999)
